{"source": "patent US20100130598A1", "about": "“METHODS FOR INDUCING PROGRAMMED CELL DEATH” (Novogen Research Pty Ltd., priority 2008, published 2010)", "key": {"[1]": {"test_system": "Caspase 2, 3 and 9 in PANC-1 cells", "assay": "In situ caspase activity by flow cytometry, PANC-1", "assay_type": "cell-based, human", "settings": "PANC-1, 10 μM, after 48 hrs", "method": "(§1) Cells. Human pancreatic cell lines HPAC, MIAPaCa-2 and PANC-1 were obtained from the ATCC. (Manassas, Va.). The cells were maintained in DMEM media with Gln and high glucose (Mediatech, Manassas, Va.) with 10% fetal bovine serum (FBS, HyClone, Logan, Utah) and pencillin/streptomycin.\nCaspase Activity After 48 h treatment with 10 μM Compound 10, HPAC, MIAPaCa-2 and PANC-1 cells were harvested by trypsinization and resuspended in DMEM media with 10% FBS. The cells were incubated with caspase substrates for 1 h at 37° C., 5% CO2, then probed with Annexin-V-Cy5 and sytox blue. Caspase +ve cells were gated as shown in the histograms and these cells are indicated on the Annexin-V-Cy5/sytox blue spectra as blue cells. In situ caspase activity was assayed using fluorescent substrates. For Caspase 2, FITC-VDVAD-fmk (Biovision K182-100), for Caspase 3, FITC-DEVD-fmk (K183-100) and for Caspase 9, FITC-LEHD-fmk (K199-100) was used. These substrates bind irreversibly to their respective activated caspases, and caspase activation was quantitated by flow cytometry. […] Caspase activation, apoptosis and necrosis were measured simultaneously using a violet, blue and red laser in a BD LSRII flow cytometer."}, "[2]": {"test_system": "HPAC cells", "assay": "Western blot analysis of apoptosis regulatory proteins, p21 and p53, HPAC", "assay_type": "cell-based, human", "settings": "10 μM", "source_text": "as §1\nAntibodies. Antibodies utilised in this study specific to p53 and, p21 were obtained from (Calbiochem, EMD, San Diego, Calif.), Caspase 9, XIAP, COX IV, Bcl2 and Akt (Cell Signaling Technology, Danvers, Mass.), Caspase 2, Cytochrome c and Bid (BD Pharmingen, San Diego, Calif.). GAPDH (RDI, Concord, Mass.) or β-actin (Sigma, St. Louis, Mo.) was used as a housekeeping gene to standardize the protein loading on the gels and blots.\nWestern blot analysis. Cells were seeded on 100 mm tissue culture plates and grown overnight to ˜90% confluence. Cells were then treated with the drug combinations for indicated time points. After the final treatment step, the cells were lysed with 500 μL of a lysis buffer containing 1% Nonidet P-40, 0.1% SDS, 0.5% deoxycholate, 150 mM NaCl, 50 mM Tris-HCl pH7.5, 1 mM EDTA, 1 mM PMSF and protease inhibitors (Roche) on ice for 30 minutes. Cell lysates were harvested with a sterile cell scraper and centrifuged at 15,000×g for 15 minutes to remove cell debris. Protein was assayed by the BCA method (Pierce) and 50 μg aliquots were separated on 12%, T, 2.6%C SDS-PAGE gels. Proteins were electrophoretically transferred to PVDF membranes (Immobilon P, Millipore, Billerica, Mass.) by the wet transfer method. These membranes were probed with specific antibodies and with anti-GAPDH which was used as the housekeeping gene to standardize the protein loading. The blots were developed on X-ray films using HRP-conjugated secondary antibodies (Southern Biotech, Birmingham, Ala.) and a chemiluminescent substrate (ECL, Amersham, N.Y.)."}, "[3]": {"test_system": "MIAPaCa-2 cells", "assay": "Cell cycle analysis by FACS (PI), MIAPaCa-2", "assay_type": "cell-based, human", "settings": "MIAPaCa-2, 10 μM", "method": "as §1\nFACS Analysis. Apoptosis was measured by FACS analysis using Annexin-V-FITC and propidium iodide (PI) (Biovision, Mountain View, Calif.) as probes (Ahn et al., 2003). Mitochondrial membrane potential was measured by FACS analysis using JC-1 (Biovision) as a probe (Ahn et al., 2003). Cell cycle was analyzed on ethanol-fixed, RNaseA-treated cells staining with PI. In each spectrum, 10,000 gated events were recorded and analyzed with a FACSCalibur (BD Biosciences. San Jose, Calif.). All experiments were done in triplicate, error bars represent one standard deviation. Caspase inhibitor I (zVAD-fmk) was obtained from Calbiochem."}, "[4]": {"test_system": "MIAPaCa-2", "assay": "MIAPaCa-2 pancreatic cancer xenograft", "assay_type": "in vivo, Balb/c nude mice", "settings": "MIAPaCa-2 model", "method": "For xenograft studies, five week old male Balb/c nude mice were maintained on an isoflavone-free diet to remove background isoflavone levels contributed by standard feed. On the day of inoculation a suspension of MIAPaCa2 or HPAC cells was prepared in DMEM (-FBS), chilled on ice and then an equal volume of matrigel (BD) was added. Mice were inoculated subcutaneously with 3×10^6 MIAPaCa2 or HPAC cells bilaterally (midway between the axillary and inguinal region) along the dorsal surface, ensuring that cells to be injected were growing at mid-end log phase. Tumor growth was monitored over 10-15 days. Compound 10 was given orally by gavage in 1% carboxy methyl cellulose (CMC) as a vehicle. Gemcitabine was injected intraperiponeally in PBS. In combination groups animals were first dosed with Compound 10 and then dosed with gemcitabine using the respective administration schedule, dosage and route of delivery stated."}}, "data": [{"smiles": "COc1ccc(C2c3ccc(O)cc3OCC2c2ccc(O)cc2)cc1", "note": "(stereo not shown) [Compound 10, 3-(4-hydroxyphenyl)-4-(4-methoxyphenyl)chroman-7-ol]", "values": [{"measurement": "caspase 2, 3 and 9 activation", "setting": "[1]", "result": "activated"}, {"measurement": "expression of p53", "setting": "[2]; HPAC (wild type p53), by 48 hr", "result": "elevated"}, {"measurement": "Bid cleavage", "setting": "[2]; HPAC", "result": "transitory increase"}, {"measurement": "Caspase 2 cleavage", "setting": "[2]; HPAC", "result": "cleaved to a lesser extent"}, {"measurement": "cleavage of Caspase 3", "setting": "[2]; HPAC", "result": "did not cause significant cleavage"}, {"measurement": "level of XIAP", "setting": "[2]; HPAC", "result": "reduced"}, {"measurement": "levels of Bcl2", "setting": "[2]; HPAC", "result": "lowered"}, {"measurement": "p21", "setting": "[2]; HPAC", "result": "essentially unchanged"}, {"measurement": "total Akt", "setting": "[2]; HPAC, early timepoint (4 hr)", "result": "reduced"}, {"measurement": "cleaved caspase 9 (17kd)", "setting": "[2]; HPAC, time course 0-48 hrs", "result": "initial drop in cleaved caspase 9 (17kd) followed by an increase after 16 hr"}, {"measurement": "time of entering G2/M arrest post treatment", "setting": "[3]", "result": "24 to 48", "unit": "h"}, {"measurement": "% T/C (mean terminal tumor burden)", "setting": "[4]; Compound 10 100 mg/kg oral qd×12, gemcitabine 20 mg/kg q3d×4, alone or combined", "result": 94, "unit": "%"}, {"measurement": "rate of tumor proliferation", "setting": "[4]; oral 100 mg/kg, qd×12, vs vehicle control, level similar to gemcitabine", "result": "retarded"}]}]}
